From patent publication US5703092A, “Hydroxamic acid compounds as metalloprotease and TNF inhibitors” (The DuPont Merck Pharmaceutical Company, priority 1996, dated 1997)

Key:
[1] = test system: truncated MMP-3; test: Bisacetylated Substance P/MMP-3 Fluorescent Assay; format: biochemical; details: bisacetylated substrate with MMP-3
Excerpt: Bisacetylated Substance P/MMP-3 Fluorescent Assay
A high capacity enzymatic assay was developed to detect potential inhibitors of MMP-3. The assay uses a derivative of a peptide substrate, substance P (Arg-Pro-Lys-Pro-Gln-Gln-Phe-Phe-Gly-Leu-Met), which is cleaved by MMP-3 exclusively at the glutamine-phenylalanine bond. In order to adapt this assay for high throughput screening, we have developed a fluorimetric method of product detection. The production of the hydrolysis product, substance P 7-11, is measured by reaction with fluorescamine, a fluorogenic compound which reacts with the primary amine of this fragment. The substance P substrate is bisacetylated to block the primary amines of the intact substrate. Thus, the resulting fluorescence represents generation of product (7-11 peptide) formed upon cleavage by MMP-3, and is quantitated using a standard curve prepared with known concentrations of 7-11 peptide.
To evaluate inhibition of MMP-3, compounds were prepared at a concentration of 10 mM in 100% methanol, and then further diluted to a 20× molar stock. Five microliters of each drug stock was added to the assay in the presence of 20 nM truncated MMP-3 in 67.5 mM tricine (pH 7.5), 10 mM CaCl2, 40 mM NaCl, and 0.005% Brij 35 in a final volume of 100 microliters. Bisacetylated substance P ([…]) was added, and the assay was run for 1 hour at 25° C. […]

[2] = Ex Vivo Assay for Bioavailability of MMP-3 Inhibitors (plasma level after dosing); format: in vivo; details: rat, po; rats, dosed orally at 100 mg/kg; plasma level read via MMP-3 inhibition against a spiked plasma standard curve
Description: Ex Vivo Assay for Bioavailability of MMP-3 Inhibitors
Blood was collected by cardiac puncture from rats at different times after dosing I.V., I.P., or P.O. with compound in order to determine the levels of inhibitor present. Plasma was extracted with 10% TCA in 95% methanol, and placed on ice for 10 minutes. The plasma was then centrifuged for 15 minutes at 14,000 rpm in an Eppendorf microcentrifuge. The supernatant was removed, recentrifuged, and the resulting supernatant was diluted 1:10 in 50 mM tricine, pH 8.5. The pH of the sample was adjusted to 7.5, and then assayed in the MMP-3 substance P fluorescent enzymatic assay. Plasma from naive rats was extracted by the same method and used as a negative control. This plasma was also used to prepare a spiked plasma curve of the compound of interest. Known concentrations of the compound were added to control plasma, the plasma was extracted by the same method, and then assayed in the MMP-3 enzymatic assay. A standard curve was prepared that related percent inhbition in the MMP-3 assay to the concentration of drug added in the spiked samples. Based on the percent inhibition in the presence of plasma from dosed rats, the concentration of compound was determined using the standard curve.

Sequence of truncated MMP-3 (P08254 100-272 limits assumed): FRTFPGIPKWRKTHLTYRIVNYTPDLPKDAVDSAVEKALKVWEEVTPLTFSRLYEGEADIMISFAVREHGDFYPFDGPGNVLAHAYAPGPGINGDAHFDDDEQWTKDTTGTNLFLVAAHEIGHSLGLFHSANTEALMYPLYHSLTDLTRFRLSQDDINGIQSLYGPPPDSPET

Row | Molecule | Km [1] [µM] | Vmax [1] [nmoles 7-11 peptide/min] | Cmax [2] [nM]
1 | bisacetylated substrate: bisacetylated derivative of peptide substrate substance P (Arg-Pro-Lys-Pro-Gln-Gln-Phe-Phe-Gly-Leu-Met), cleaved by MMP-3 | 769 ± 52 | 0.090±0.003 | 
2 | CC(C)C[C@@H](C(=O)N[C@H](c1nc2cc(Cl)ccc2[nH]1)C(C)(C)C)[C@H](O)C(=O)NO [Example 86, N-[1(S)-(5-chloro-2-benzimidazolyl)-2,2,2-trimethylethyl]-[3-(N-hydroxyaminocarbonyl)-3(S)-hydroxy-2(R)-isobutyl]propanamide] |  |  | 960
